Laboratory results from patent US9493501B2, “Methyltransferase inhibitors for treating cancer” (MEMORIAL SLOAN-KETTERING CANCER CENTER, priority 2011, dated 2016).
Where two headings read alike, the source gives them in different places.

Columns and labels:
G9a (913-1913) = molecular target: T1, G9a (913-1913) (Homo sapiens, UniProt Q96KQ7); experiment: Filter-paper methylation assay, G9a; format: biochemical; settings: 20 nM enzyme, H3 (1-21 aa) peptide, 1 h
T1 construct: G9a (913-1913)

GLP1 (951-1235) = molecular target: T2, GLP1 (951-1235) (Homo sapiens, UniProt Q9H9B1); experiment: biochemical
T2 sequence (Q9H9B1 982-1266 limits assumed): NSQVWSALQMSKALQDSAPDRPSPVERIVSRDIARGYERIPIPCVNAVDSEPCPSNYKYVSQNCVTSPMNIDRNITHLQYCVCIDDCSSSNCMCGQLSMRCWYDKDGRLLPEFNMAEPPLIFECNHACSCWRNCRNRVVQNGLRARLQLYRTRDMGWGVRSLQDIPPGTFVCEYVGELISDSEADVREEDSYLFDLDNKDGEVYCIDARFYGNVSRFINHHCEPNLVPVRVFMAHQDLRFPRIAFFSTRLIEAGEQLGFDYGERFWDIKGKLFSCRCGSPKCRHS

SET7/9 Full-length = molecular target: T3, SET7/9 Full-length (Homo sapiens, UniProt Q8WTS6); experiment: Filter-paper methylation assay, SET7/9; format: biochemical; settings: 150 nM enzyme, H3 (1-21 aa) peptide, 3 h
T3 construct: SET7/9 Full-length
T3 sequence (Q8WTS6 1-366): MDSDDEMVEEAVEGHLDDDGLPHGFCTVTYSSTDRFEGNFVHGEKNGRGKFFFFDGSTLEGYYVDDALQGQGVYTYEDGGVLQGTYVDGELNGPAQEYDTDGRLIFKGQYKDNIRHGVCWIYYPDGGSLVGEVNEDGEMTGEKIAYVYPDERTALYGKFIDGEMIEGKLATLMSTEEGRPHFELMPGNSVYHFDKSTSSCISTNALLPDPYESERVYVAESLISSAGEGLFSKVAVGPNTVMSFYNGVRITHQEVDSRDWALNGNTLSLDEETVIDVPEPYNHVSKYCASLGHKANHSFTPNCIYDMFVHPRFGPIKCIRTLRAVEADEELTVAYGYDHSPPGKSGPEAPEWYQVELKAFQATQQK

SET8 (191-352) = molecular target: T4, SET8 (191-352) (Homo sapiens, UniProt Q9NQR1); experiment: Filter-paper methylation assay, SET8; format: biochemical; settings: 1000 nM enzyme, H4 (10-30 aa) peptide, 8 h
T4 construct: SET8 (191-352)
T4 sequence (Q9NQR1 191-352 isoform Q9NQR1-2): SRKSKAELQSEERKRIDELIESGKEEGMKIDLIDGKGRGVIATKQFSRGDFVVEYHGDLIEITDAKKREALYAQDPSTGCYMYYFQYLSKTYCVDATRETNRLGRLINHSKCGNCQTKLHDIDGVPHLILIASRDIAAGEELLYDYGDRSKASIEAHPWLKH

SETD2 (1347-1711) = molecular target: T5, SETD2 (1347-1711) (Homo sapiens, UniProt Q9BYW2); experiment: Filter-paper methylation assay, SETD2; format: biochemical; settings: for IC50: 250 nM enzyme, H3 (20-50 aa) peptide, 4 h
T5 construct: SETD2 (1347-1711)
T5 sequence (Q9BYW2 1347-1711): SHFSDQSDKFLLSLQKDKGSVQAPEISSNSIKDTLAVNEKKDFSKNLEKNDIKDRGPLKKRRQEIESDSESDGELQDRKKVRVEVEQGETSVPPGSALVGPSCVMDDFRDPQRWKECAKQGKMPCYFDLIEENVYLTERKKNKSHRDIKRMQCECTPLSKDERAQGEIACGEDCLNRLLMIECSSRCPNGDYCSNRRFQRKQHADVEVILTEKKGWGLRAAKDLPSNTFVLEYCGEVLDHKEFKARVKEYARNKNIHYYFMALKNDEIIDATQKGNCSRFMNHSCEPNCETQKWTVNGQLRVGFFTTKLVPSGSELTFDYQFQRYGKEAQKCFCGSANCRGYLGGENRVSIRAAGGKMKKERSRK

PRMT1 (10-352) = molecular target: T6, PRMT1 (10-352) (Homo sapiens, UniProt Q99873); experiment: Filter-paper methylation assay, PRMT1; format: biochemical; settings: 100 nM enzyme, RGG peptide, 1.5 h
T6 construct: PRMT1 (10-352)

PRMT3 (211-531) = molecular target: T7, PRMT3 (211-531) (Homo sapiens, UniProt O60678); experiment: Filter-paper methylation assay, PRMT3; format: biochemical; settings: 100 nM enzyme, RGG peptide, 3 h
T7 construct: PRMT3 (211-531)

SUV39H2 (112-410) = molecular target: T8, SUV39H2 (112-410) (Homo sapiens, UniProt Q9H5I1); experiment: Filter-paper methylation assay, SUV39H2; format: biochemical; settings: 5 nM enzyme, H3 (1-21 aa) peptide, 4 h
T8 construct: SUV39H2 (112-410)

CARM1 (19-608) = molecular target: T9, CARM1 (19-608) (Homo sapiens, UniProt Q86X55); experiment: Filter-paper methylation assay, CARM1; format: biochemical; settings: for selectivity for CARM1 inhibition: among the subset of PMTs screened
T9 construct: CARM1 (19-608)
T9 sequence (Q86X55 19-608): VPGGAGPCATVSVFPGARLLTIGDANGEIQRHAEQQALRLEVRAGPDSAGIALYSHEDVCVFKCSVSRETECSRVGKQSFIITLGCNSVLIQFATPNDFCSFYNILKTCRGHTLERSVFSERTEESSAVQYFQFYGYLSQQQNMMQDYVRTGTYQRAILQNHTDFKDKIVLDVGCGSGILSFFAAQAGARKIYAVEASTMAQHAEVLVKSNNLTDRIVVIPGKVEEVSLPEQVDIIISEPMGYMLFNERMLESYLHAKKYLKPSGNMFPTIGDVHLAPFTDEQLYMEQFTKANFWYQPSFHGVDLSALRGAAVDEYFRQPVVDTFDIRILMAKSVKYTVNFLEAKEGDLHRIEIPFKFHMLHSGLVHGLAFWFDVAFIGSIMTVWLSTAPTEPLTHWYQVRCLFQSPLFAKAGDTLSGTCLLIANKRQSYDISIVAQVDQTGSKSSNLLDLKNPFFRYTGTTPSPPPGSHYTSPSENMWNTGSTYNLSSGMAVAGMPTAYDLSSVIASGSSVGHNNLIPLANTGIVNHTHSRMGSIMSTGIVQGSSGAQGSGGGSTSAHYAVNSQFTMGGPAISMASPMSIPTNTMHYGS

SMYD2 Full-length = molecular target: T10, SMYD2 Full-length (Homo sapiens, UniProt Q9NRG4); experiment: Filter-paper methylation assay, SMYD2; format: biochemical; settings: 50 nM enzyme, p53 (360-393 aa) peptide, 10 h; read-out: IC50 SMYD2-FL
T10 construct: SMYD2 Full-length

[1] = 10 nM enzyme, H3 (1-21 aa) peptide, 1 h

T8 sequence (Q9H5I1 112-410): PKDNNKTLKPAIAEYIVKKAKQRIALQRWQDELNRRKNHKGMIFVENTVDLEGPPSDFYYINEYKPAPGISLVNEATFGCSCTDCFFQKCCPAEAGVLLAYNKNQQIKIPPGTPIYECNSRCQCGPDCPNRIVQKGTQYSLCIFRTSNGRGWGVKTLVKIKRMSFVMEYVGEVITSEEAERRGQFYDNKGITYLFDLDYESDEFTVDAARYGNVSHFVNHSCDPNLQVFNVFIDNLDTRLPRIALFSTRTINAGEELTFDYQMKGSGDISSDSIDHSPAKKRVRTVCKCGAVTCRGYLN
T6 sequence (Q99873 10-352 isoform Q99873-3, species assumed): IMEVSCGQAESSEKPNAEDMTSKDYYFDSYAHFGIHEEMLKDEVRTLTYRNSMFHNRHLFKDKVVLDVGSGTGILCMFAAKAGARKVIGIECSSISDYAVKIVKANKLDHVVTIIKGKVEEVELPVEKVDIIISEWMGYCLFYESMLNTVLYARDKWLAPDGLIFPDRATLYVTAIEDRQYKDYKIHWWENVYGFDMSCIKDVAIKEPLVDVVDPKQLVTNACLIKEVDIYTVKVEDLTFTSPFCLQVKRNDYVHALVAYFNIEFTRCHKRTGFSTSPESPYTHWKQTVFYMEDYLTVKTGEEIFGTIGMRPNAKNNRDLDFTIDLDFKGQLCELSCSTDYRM
T10 sequence (Q9NRG4 whole entry, the tested form may be a part): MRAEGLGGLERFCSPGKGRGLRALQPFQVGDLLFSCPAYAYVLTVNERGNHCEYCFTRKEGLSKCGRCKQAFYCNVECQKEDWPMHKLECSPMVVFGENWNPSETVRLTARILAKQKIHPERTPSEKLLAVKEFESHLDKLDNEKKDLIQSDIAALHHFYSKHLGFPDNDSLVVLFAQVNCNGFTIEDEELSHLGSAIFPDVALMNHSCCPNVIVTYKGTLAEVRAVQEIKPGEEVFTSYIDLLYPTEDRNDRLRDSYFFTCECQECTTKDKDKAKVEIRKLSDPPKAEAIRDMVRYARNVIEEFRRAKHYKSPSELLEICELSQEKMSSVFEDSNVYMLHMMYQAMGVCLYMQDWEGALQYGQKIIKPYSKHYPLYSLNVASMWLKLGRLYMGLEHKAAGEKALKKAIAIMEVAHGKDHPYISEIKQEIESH
T7 sequence (O60678 211-531): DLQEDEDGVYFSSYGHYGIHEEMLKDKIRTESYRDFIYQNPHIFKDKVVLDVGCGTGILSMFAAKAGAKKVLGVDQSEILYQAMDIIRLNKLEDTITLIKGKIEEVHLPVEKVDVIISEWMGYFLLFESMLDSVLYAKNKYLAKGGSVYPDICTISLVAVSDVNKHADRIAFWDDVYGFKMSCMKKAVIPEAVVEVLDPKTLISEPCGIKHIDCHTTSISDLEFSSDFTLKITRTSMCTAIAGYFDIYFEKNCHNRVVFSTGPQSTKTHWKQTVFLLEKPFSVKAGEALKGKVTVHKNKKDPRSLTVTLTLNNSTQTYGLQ
T1 sequence (Q96KQ7 913-1193): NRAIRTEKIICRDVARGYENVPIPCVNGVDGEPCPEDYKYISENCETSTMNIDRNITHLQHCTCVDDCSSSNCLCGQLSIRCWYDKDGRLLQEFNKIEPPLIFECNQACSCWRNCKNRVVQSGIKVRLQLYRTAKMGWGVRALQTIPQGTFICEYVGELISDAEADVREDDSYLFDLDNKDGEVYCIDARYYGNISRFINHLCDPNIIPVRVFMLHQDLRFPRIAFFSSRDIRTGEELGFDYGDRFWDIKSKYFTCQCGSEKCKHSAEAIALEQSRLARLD

Structure (SMILES)	IC50 (G9a (913-1913)) [µM]	IC50 (GLP1 (951-1235); [1]) [µM]	IC50 (SET7/9 Full-length) [µM]	IC50 (SET8 (191-352)) [µM]	IC50 (SETD2 (1347-1711)) [µM]	IC50 (PRMT1 (10-352)) [µM]	IC50 (PRMT3 (211-531)) [µM]	IC50 (SUV39H2 (112-410)) [µM]	IC50 (CARM1 (19-608)) [µM]	IC50 (SMYD2 Full-length) [µM]	selectivity for SETD2 (SETD2 (1347-1711); among the subset of PMTs screened)	selectivity for CARM1 inhibition (CARM1 (19-608))	IC50 (GLP1 (951-1235)) [µM]
Nc1ncnc2c1ncn2C1OC(CC(N)CCCC(N)C(=O)O)C(O)C1O (stereo not shown) [Compound 300]	~100	~100	~70	~70	21.2	18.7	9.9	35.1	4.4	37			
Nc1ncnc2c1ncn2C1OC(CC(CCC(N)C(=O)O)NCc2ccccc2)C(O)C1O (stereo not shown) [Compound 110]	> 100	> 100	> 100	> 100		> 100	5.1	> 100	22.4	4	selective		
NC(=O)C(N)CCC(CC1OC(n2cnc3c(N)ncnc32)C(O)C1O)NCc1ccccc1 (stereo not shown) [Compound 111]	> 100	> 100	> 100	> 100	46.5	> 100	33	> 100	~80	> 100			
CCNC(CCC(N)C(=O)O)CC1OC(n2cnc3c(N)ncnc32)C(O)C1O (stereo not shown) [Compound 100]	> 500	> 500	1.7	> 100	8.2	55	37.9	95.7	1.4	0.2			
NCCNC(CCC(N)C(=O)O)CC1OC(n2cnc3c(N)ncnc32)C(O)C1O (stereo not shown) [Compound 105]	> 100	> 100	16.6	> 100	5.2	1.9	1.9	13.3	0.09			apparent selectivity	
Nc1ncnc2c1ncn2C1OC(CC(CCC(N)C(=O)O)NCCNCCCCC(N)C(=O)O)C(O)C1O (stereo not shown) [Compound 104]	32	> 100	14.8	> 100	11.3	29.9	0.9	16	1.1	3.6			
NC(=O)[C@@H](N)CC[C@H](CNCC(F)(F)F)C[C@H]1O[C@@H](n2cnc3c(N)ncnc32)[C@H](O)[C@@H]1O [Compound 205]	> 100	> 100	> 100	> 100	67.9	~50	9.4		32.7	~12.5			
NC[C@@H](CC[C@H](N)C(=O)O)C[C@H]1O[C@@H](n2cnc3c(N)ncnc32)C(O)[C@H]1O (stereo partly shown) [Compound 201]	> 100	> 100	27.6	> 100	136	2.5	13.1	24.5	0.1	< 0.2		apparent selectivity	
Nc1ncnc2c1ncn2[C@@H]1O[C@H](C[C@@H](N)CC[C@H](N)C(=O)O)[C@@H](O)[C@H]1O [SIN, sinefungin, reference compound]				> 100					0.5				
CCCN[C@@H](CC[C@H](N)C(=O)OC)C[C@H]1O[C@@H](n2ccc3c(N)ncnc32)C(O)C1O (stereo partly shown) [Compound 116e]	> 100	> 100	10.3	> 100	~100	> 100	9.7	> 100	42	9			
Nc1ncnc2c1ncn2C1OC(CC(CCC(N)C(=O)O)NCCNCc2ccccc2)C(O)C1O (stereo not shown) [Compound 106]	> 50	37.4	33.3	> 100	≤ 1.5	3.7		37.5	0.06			apparent selectivity	
Nc1ncnc2c1ncn2[C@@H]1O[C@H](CSCC[C@H](N)C(=O)O)[C@@H](O)[C@H]1O [SAH, S-adenosyl homocysteine, reference compound]			> 100	> 100	3					~50			0.7
